Reference: PubChem BioAssay (NCI)
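Grown in 96-well plates, cells were treated for 48 hours with each compound at five concentrations. Insufficient inhibition: endpoint recorded as highest concentration tested. TGI is the concentration that stops growth completely.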 Where a SMILES comes first, the peptide text is derived from it. [ ]: non-standard residue; d: D form. The star is where a group is joined. mTyr = N[CH](Cc1cccc(O)c1)C(=O)O; Cbz = O=C(OCc1ccccc1)*; OBn = c1ccc(CO*)cc1

How the values were obtained:
Test in all cases: DTP human tumour cell line panel, 48 h
HL-60(TB) leukemia = tested on: HL-60(TB) leukemia
K-562 leukemia = tested on: K-562 leukemia
786-0 renal = tested on: 786-0 renal
RXF 393 renal = tested on: RXF 393 renal
MALME-3M melanoma = tested on: MALME-3M melanoma
NCI-H460 lung = tested on: NCI-H460 lung
MDA-N = tested on: MDA-N
EKVX NSCLC = tested on: EKVX NSCLC
SK-OV-3 ovarian = tested on: SK-OV-3 ovarian
IGROV1 ovarian = tested on: IGROV1 ovarian
SK-MEL-5 melanoma = tested on: SK-MEL-5 melanoma

SMILES | TGI (HL-60(TB) leukemia) [µM] | TGI (K-562 leukemia) [µM] | TGI (786-0 renal) [µM] | TGI (RXF 393 renal) [µM] | TGI (MALME-3M melanoma) [µM] | TGI (NCI-H460 lung) [µM] | TGI (MDA-N) [µM] | TGI (EKVX NSCLC) [µM] | TGI (SK-OV-3 ovarian) [µM] | TGI (IGROV1 ovarian) [µM] | TGI (SK-MEL-5 melanoma) [µM]
Cc1ccc2c(=O)cc(-c3ccc(-c4ccccc4)s3)[nH]c2n1 | > 100 | > 100 | > 100 | > 100 | > 81.1 | > 100 | > 100 | > 81.4 | > 100 | > 100 | > 39.7
CC(C)CN=C(N)N=C(N)N | > 100 | > 100 | > 100 | > 100 | > 100 | > 100 | > 100 | > 100 | > 100 | > 100 | > 100
COC(=O)c1c(O)ccc2c1C1(Cc3ccccc3C1=O)C(O)O2 (stereo unspecified) | 40.4 | > 100 | 30.2 | > 100 | 71.4 | > 100 | 28.7 | 68.5 | 57.8 | 36.3 | > 100
CCOP(=O)(OCC)C(C)(CC)NC (stereo unspecified) | > 100 | > 100 | > 100 | > 100 | > 100 | > 100 | > 100 | > 100 | > 100 | > 100 | > 100
FC(F)(F)c1ccc2nc(Sc3ccccn3)cnc2c1 | 31.7 | > 100 | 62.1 | 55.5 | > 100 | > 100 | > 100 | > 100 | > 100 | > 100 | 66.2
COc1cc([C@@H]2c3cc(O)c(OC)cc3C=C(C(N)=O)[C@H]2C(N)=O)ccc1O | > 100 | > 100 | > 100 | > 100 | > 100 | > 100 | > 100 | > 100 |  | > 100 | > 100
CC1OC(OC2C(OC(=O)[C@@H]3CC(C)(C)C[C@H]4C5=CC[C@@H]6[C@@]7(C)C[C@H](O)[C@H](OC8OC(CO)C(O)C(O)C8O)[C@@](C)(CO)[C@@H]7[C@H](O)C[C@@]6(C)[C@]5(C)CC[C@@]34C)OCC(O)C2O)C(O)C(O)C1O (stereo partly specified) | > 7.5 | > 7.5 | > 7.5 | > 7.5 | > 7.5 | > 7.5 | > 7.5 | > 7.5 | > 7.5 | > 7.5 | > 7.5
CCNC1=C(NC(=O)CC)C(=O)c2ccccc2C1=O | > 100 | > 100 | > 100 | > 100 | 60.1 | > 100 | > 100 | > 100 | > 100 | > 100 | > 100
CCC(c1c[nH]c2ccc(Br)cc12)c1c[nH]c2ccc(Br)cc12 | 16.3 | 6.57 | 11.2 | 7.21 | 24.9 | 6.82 | 16 | 17.2 | 24.1 | 19 | 26.8
CC(C)[C@@H]1ON1C(C)c1ccccc1 (stereo partly specified) | > 100 | > 100 | > 100 | > 100 | > 100 | > 100 | > 100 | > 100 | > 100 | > 100 | > 100
COc1ccc(C(=O)c2[nH]c(Nc3ccc(Cl)cc3)c(C(=S)Nc3ccccc3)c2N)cc1 | > 100 | > 100 | > 100 | > 100 | > 100 | > 100 | > 100 | > 100 | > 100 | > 100 | > 100
OC(c1ccc(-c2ccccc2)cc1)C(F)(F)c1nc2ccccc2o1 (stereo unspecified) | > 74.1 | > 61.3 | 74.6 | 49.5 | > 100 | > 100 | > 100 | > 100 | > 100 | > 100 | > 100
COC(=O)C(Cc1cccc(O)c1)NC(=O)C(CC(=O)OCc1ccccc1)NC(=O)OCc1ccccc1 (stereo unspecified) (Cbz-Asp(OBn)-[mTyr]-OMe; configuration not given here) | > 100 | > 100 | > 100 | > 100 | > 100 | 35.6 | > 100 | > 100 |  | > 100 | > 100
COC(=O)c1c(OC(C)=O)ccc2c1c1c(OC(C)=O)c3ccccc3c(OC(C)=O)c1n2Cc1ccccc1 | 26.6 | > 50 | 37.2 | > 50 | 22.6 | > 50 | 41.1 | 10.4 | 19.5 | 19.7 | 9.47
COc1nc(N)c(N=CC(OC(C)=O)C(OC(C)=O)C(COC(C)=O)OC(C)=O)c(=O)n1C (stereo unspecified) | > 100 | > 100 | > 100 | > 100 | > 100 | > 100 | > 100 | > 100 | > 100 | > 100 | > 100
Cc1cc(O)c(C(C)C)cc1C1(c2cc(C(C)C)c(O)cc2C)OC(=O)c2ccccc21 | 1.24 | 3.25 | 5.52 | 3.02 | 5.21 | 3.99 | 3.11 | 9.25 | > 33.3 | 8.89 | 2.99
C#CCOCC12C=CC(O1)C1C(=O)OCC12 (stereo unspecified) | > 100 | > 100 | > 100 | > 100 | > 100 | > 100 | > 100 | > 100 | > 100 | > 100 | > 100
C/C(=C/CC[C@]1(CO)CC[C@]2(CO)[C@H](CC[C@@H]3[C@@]4(C)CC[C@H](OC5OCC(O)C(O)C5OC5OC(CO)C(O)C(O)C5O)C(C)(C)[C@@H]4CC[C@]32C)[C@H]1O)CO (stereo partly specified) | > 100 | > 100 | > 100 | > 100 | > 100 | > 100 | > 100 | > 100 | > 100 | > 100 | > 100
